The target of test [1] is T1, recombinant human LTA4 hydrolase (rhLTA4H) (Homo sapiens, UniProt P09960).
T1 construct: made in house; host or cells: Spodoptera frugiperda (Sf-9) cells, recombinant baculovirus (pFastBac1)
T1 sequence (P09960 1-611): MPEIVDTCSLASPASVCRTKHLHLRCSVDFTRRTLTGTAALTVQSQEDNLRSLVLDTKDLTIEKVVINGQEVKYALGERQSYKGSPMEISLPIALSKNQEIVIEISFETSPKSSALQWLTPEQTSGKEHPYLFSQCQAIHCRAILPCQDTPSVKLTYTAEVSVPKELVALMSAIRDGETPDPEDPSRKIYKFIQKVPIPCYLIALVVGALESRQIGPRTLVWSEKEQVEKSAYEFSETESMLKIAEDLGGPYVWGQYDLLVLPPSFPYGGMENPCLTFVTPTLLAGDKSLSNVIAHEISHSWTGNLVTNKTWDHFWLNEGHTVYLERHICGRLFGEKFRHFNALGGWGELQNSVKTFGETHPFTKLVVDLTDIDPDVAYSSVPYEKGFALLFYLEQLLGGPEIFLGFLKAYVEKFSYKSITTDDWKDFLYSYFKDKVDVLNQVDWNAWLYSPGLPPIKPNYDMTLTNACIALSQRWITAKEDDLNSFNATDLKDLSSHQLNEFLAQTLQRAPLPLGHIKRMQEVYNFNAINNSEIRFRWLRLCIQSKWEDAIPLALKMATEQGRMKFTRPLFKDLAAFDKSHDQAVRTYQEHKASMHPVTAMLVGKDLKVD
As to the kind of experiment: Recombinant human LTA4 hydrolase assay for LTA4 hydrolase inhibitor activity. The conditions noted are these: rhLTA4H, LTA4 substrate, LTB4 by immunoassay; single determination or average; read-out: IC50. The test is classed as biochemical. In outline: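 LTB4 formed from LTA4 substrate (free acid from the methyl ester) was quantified by enzyme immunoassay after a 30 min rt reaction. Enzyme was 10 ng Sf-9-expressed human LTA4 hydrolase, pre-incubated 10 min with compound.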

Test [2] relates to LTB4 production by calcium ionophore-stimulated murine blood. Kind of test: LTB4 production by calcium ionophore-stimulated murine blood for LTA4H inhibitor activity. The test is classed as cell-based, CD-1 mice. Put shortly:
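LTB4 quantified by EIA in supernatants after murine (CD-1) heparinized whole blood was exposed to compound for 15 min, then to 7 μg/mL (final) A23187 for 30 min, all at 37° C. Reported values: single runs or means; three or more runs include SD.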

Setting [3] is: Mus musculus, murine blood diluted 1 in 15, calcium ionophore A23187, LTB4 by immunoassay, read-out: IC50.

Counter-ions that a name gives are not always drawn. Like-named read-outs stand apart in the source and are kept apart here.

In general, IC50 refers to the point on the concentration scale where inhibition reaches its midpoint. For the compound `c1cnc2nc(Oc3ccc(CCN4CCC(c5ccncc5)CC4)cc3)sc2c1` [Example 65, 2-{4-[2-(4-Pyridin-4-ylpiperidin-1-yl)ethyl]phenoxy}[1,3]thiazolo[4,5-b]pyridine], the concentration for half-maximal inhibition (IC50) in test [1] amounted to 0.0096 µM; in test [2] (setting [3]), 0.1 µM.

`c1cnc2nc(Oc3ccc(OCCN4CCCC4)cc3)sc2c1` [Example 9, 2-[4-(2-Pyrrolidin-1-ylethoxy)phenoxy][1,3]thiazolo[4,5-b]pyridine]: the IC50 in test [1] came out at 0.006 µM; in test [2] (setting [3]) it was 0.017 µM.

Regarding `c1ccc(C2CCN(CCOc3ccc(Oc4nc5cccnc5s4)cc3)CC2)nc1` [Example 38, 2-{4-[2-(4-Pyridin-2-ylpiperidin-1-yl)ethoxy]phenoxy}[1,3]thiazolo[5,4-b]pyridine], the half-inhibitory concentration (IC50) was 0.061 µM in test [1] and 0.95 µM in test [2] (setting [3]).

`c1ccc(SC2CCN(Cc3ccc(Oc4nc5ncccc5s4)cc3)CC2)nc1` [Example 263, 2-(4-{[4-(Pyridin-2-ylsulfanyl)piperidin-1-yl]methyl}phenoxy)[1,3]thiazolo[4,5-b]pyridine]: the IC50 in test [1] was determined as 0.004 µM; in test [2] (setting [3]), 0.462 µM.

Consider `c1cnc(OC2CCN(Cc3ccc(Oc4nc5ncccc5s4)cc3)CC2)nc1` [Example 99, 2-(4-{[4-(Pyrimidin-2-yloxy)piperidin-1-yl]methyl}phenoxy)[1,3]thiazolo[4,5-b]pyridine], for which the IC50 was found to be 0.002 µM in test [1] and 0.008 µM in test [2] (setting [3]).

Take `CC(=O)N1C[C@H]2CC[C@@H](C1)N2Cc1ccc(Oc2nc3ncccc3s2)cc1` [Example 107, meso-2-(4-{[3-Acetyl-3,8-diazabicyclo[3.2.1]oct-8-yl]methyl}phenoxy)[1,3]thiazolo[4,5-b]pyridine]: the concentration for half-maximal inhibition (IC50) amounted to 0.004 µM in test [1] and 3 µM in test [2] (setting [3]).

Regarding `CC(=O)N1C[C@H]2CC[C@@H](C1)N2CCOc1ccc(Oc2nc3ncccc3s2)cc1` [Example 141, meso-2-{4-[2-(3-Acetyl-3,8-diazabicyclo[3.2.1]oct-8-yl)ethoxy]phenoxy}[1,3]thiazolo[4,5-b]pyridine], the values for the half-maximal inhibitory concentration (IC50) in test [1] and in test [2] (setting [3]) were 0.002 µM and 0.014 µM, respectively.

Turning to `OC1(c2cccc(C(F)(F)F)c2)CCN(CCc2ccc(Oc3nc4ncccc4s3)cc2)CC1` [Example 64, 1-{2-[4-([1,3]Thiazolo[4,5-b]pyridin-2-yloxy)phenyl]ethyl}-4-[3-(trifluoromethyl)phenyl]piperidin-4-ol], the results for the IC50 in test [1] and in test [2] (setting [3]) were 0.027 µM and 0.22 µM, respectively.

For the compound `COCCCN(CCOc1ccc(Oc2nc3ncccc3s2)cc1)C1CC1` [Example 272, N-(3-Methoxypropyl)-N-{2-[4-([1,3]thiazolo[4,5-b]pyridin-2-yloxy)phenoxy]ethyl}cyclopropanamine], the IC50 in test [1] turned out to be 0.037 µM; in test [2] (setting [3]) it was 0.097 µM.

Turning to `NC(=O)C1CCN(Cc2ccc(Oc3nc4ncc(Cl)cc4s3)cc2)CC1` [Example 284, 1-{4-[(6-Chloro[1,3]thiazolo[4,5-b]pyridin-2-yl)oxy]benzyl}piperidine-4-carboxamide], the IC50 turned out to be 0.089 µM in test [1] and 0.64 µM in test [2] (setting [3]).

For the compound `NC(=O)N[C@H]1C[C@H]2CC[C@@H](C1)N2Cc1ccc(Oc2nc3ncccc3s2)cc1` [Example 278, meso-1-{(3-endo)-8-[4-([1,3]Thiazolo[4,5-b]pyridin-2-yloxy)benzyl]-8-azabicyclo[3.2.1]oct-3-yl}urea], the IC50 in test [1] was determined as 0.002 µM; in test [2] (setting [3]), 0.28 µM.

With `CC(=O)N1C[C@@H]2C[C@H]1CN2Cc1ccc(Oc2nc3ncc(F)cc3s2)cc1` [Example 128, 2-(4-{[(1S,4S)-5-Acetyl-2,5-diazabicyclo[2.2.1]hept-2-yl]methyl}phenoxy)-6-fluoro[1,3]thiazolo[4,5-b]pyridine], the results for the 50% inhibitory concentration (IC50) in test [1] and in test [2] (setting [3]) were 0.023 µM and 0.005 µM, respectively.

As for `c1cnc2nc(Oc3ccc(CNCCN4CCCCC4)cc3)sc2c1` [Example 91, 2-Piperidin-1-yl-N-[4-([1,3]thiazolo[4,5-b]pyridin-2-yloxy)benzyl]ethanamine], the concentration for half-maximal inhibition (IC50) in test [1] amounted to 0.039 µM; in test [2] (setting [3]) it was 0.68 µM.

With `NC(=O)N1CC2CN(CCOc3ccc(Oc4nc5ncccc5s4)cc3)CC2C1` (stereo not drawn) [Example 19, 5-{2-[4-([1,3]Thiazolo[4,5-b]pyridin-2-yloxy)phenoxy]ethyl}hexahydropyrrolo[3,4-c]pyrrole-2(1H)-carboxamide], the results for the half-inhibitory concentration (IC50) in test [1] and in test [2] (setting [3]) were 0.017 µM and 0.34 µM, respectively.

On to `c1cnc2nc(Oc3ccc(OCCN4CCC(c5ccncc5)CC4)cc3)sc2c1` [Example 29, 2-{4-[2-(4-Pyridin-4-ylpiperidin-1-yl)ethoxy]phenoxy}[1,3]thiazolo[4,5-b]pyridine], for which the half-inhibitory concentration (IC50) was 0.013 µM in test [1] and 0.18 µM in test [2] (setting [3]).

`CC(=O)N1C2CCC1CN(Cc1ccc(Oc3nc4ncccc4s3)cc1)C2` [Example 185, meso-2-[(4-{[8-Acetyl-3,8-diazabicyclo[3.2.1]oct-3-yl]methyl}phenyl)oxy][1,3]thiazolo[4,5-b]pyridine]: the half-maximal inhibitory concentration (IC50) in test [1] was 0.007 µM; in test [2] (murine blood diluted 1 in 15, calcium ionophore A23187, LTB4 by immunoassay, read-out: IC50), 0.85 µM.

As for `CCCN(CCc1ccc(Oc2nc3ncccc3s2)cc1)CC1CC1` [Example 57, N-(Cyclopropylmethyl)-N-{2-[4-([1,3]thiazolo[4,5-b]pyridin-2-yloxy)phenyl]ethyl}propan-1-amine], the IC50 in test [1] came to 0.003 µM; in test [2] (setting [3]), 0.016 µM.

`c1ccc(SC2CCN(CCOc3ccc(Oc4nc5ncccc5s4)cc3)CC2)cc1` [Example 3, 2-(4-{2-[4-(Phenylsulfanyl)piperidin-1-yl]ethoxy}phenoxy)[1,3]thiazolo[4,5-b]pyridine]: the IC50 worked out at 0.07 µM in test [1] and 0.38 µM in test [2] (setting [3]).

Consider `CS(=O)(=O)N[C@H]1C[C@H]2CC[C@@H](C1)N2Cc1ccc(Oc2nc3ncccc3s2)cc1` [Example 182, meso-N-[(3-endo)-8-{[4-([1,3]Thiazolo[4,5-b]pyridin-2-yloxy)phenyl]methyl}-8-azabicyclo[3.2.1]oct-3-yl]methanesulfonamide], for which the results for the 50% inhibitory concentration (IC50) in test [1] and in test [2] (setting [3]) were 0.0019 µM and 0.024 µM, respectively.

Consider `NC(=O)N1CC2CN(CCc3ccc(Oc4nc5ncccc5s4)cc3)CC2C1` (stereo not drawn) [Example 74, 5-{2-[4-([1,3]Thiazolo[4,5-b]pyridin-2-yloxy)Phenyl]ethyl}hexahydropyrrolo[3,4-c]pyrrole-2(1H)-carboxamide], for which the values for the IC50 in test [1] and in test [2] (setting [3]) were 0.0065 µM and 0.23 µM, respectively.

As for `NC(=O)N[C@@H]1C[C@H]2CC[C@@H](C1)N2CCOc1ccc(Oc2nc3ncccc3s2)cc1` [Example 142, meso-1-[(3-exo)-8-{2-[4-([1,3]Thiazolo[4,5-b]pyridin-2-yloxy)phenoxy]ethyl}-8-azabicyclo[3.2.1]oct-3-yl]urea hydrochloride], the half-maximal inhibitory concentration (IC50) is 0.008 µM in test [1] and 1600 µM in test [2] (Mus musculus).

As to `CC1CCN(Cc2ccc(Oc3nc4ncccc4s3)cc2)CC1` [Example 97, 2-{4-[(4-Methylpiperidin-1-yl)methyl]phenoxy}[1,3]thiazolo[4,5-b]pyridine], the IC50 was 0.001 µM in test [1] and 0.013 µM in test [2] (setting [3]).

With `c1ccc(SC2CCN(Cc3ccc(Oc4nc5ncccc5s4)cc3)CC2)cc1` [Example 264, 2-(4-{[4-(Phenylsulfanyl)piperidin-1-yl]methyl}phenoxy)[1,3]thiazolo[4,5-b]pyridine], the half-maximal inhibitory concentration (IC50) in test [1] turned out to be 0.03 µM; in test [2] (setting [3]) it was 0.159 µM.

With `NC(=O)N[C@H]1C[C@H]2CC[C@@H](C1)N2CCc1ccc(Oc2nc3cccnc3s2)cc1` [Example 72, meso-1-[(3-endo)-8-{2-[4-([1,3]Thiazolo[5,4-b]pyridin-2-yloxy)phenyl]ethyl}-8-azabicyclo[3.2.1]oct-3-yl]urea], the IC50 in test [1] was found to be 0.047 µM; in test [2] (setting [3]) it was 1.04 µM.

As for `CCOC(=O)C1CCN(Cc2ccc(Oc3nc4ncccc4s3)cc2)CC1` [Example 130, Ethyl 1-[4-([1,3]thiazolo[4,5-b]pyridin-2-yloxy)benzyl]piperidine-4-carboxylate], the IC50 in test [1] was found to be 0.0025 µM; in test [2] (setting [3]) it was 0.11 µM.

On to `O[C@@H]1CCN(Cc2ccc(Oc3nc4ncccc4s3)cc2)C1` [Example 94, (3R)-1-[4-([1,3]Thiazolo[4,5-b]pyridin-2-yloxy)benzyl]pyrrolidin-3-ol], for which the results for the IC50 in test [1] and in test [2] (setting [3]) were 0.004 µM and 0.035 µM, respectively.

As for `NC(=O)C1CCN(CCOc2ccc(Oc3nc4nccnc4s3)cc2)CC1` [Example 26, 1-{2-[4-([1,3]Thiazolo[4,5-b]pyrazin-2-yloxy)phenoxy]ethyl}piperidine-4-carboxamide], the 50% inhibitory concentration (IC50) came out at 0.2 µM in test [1] and 0.26 µM in test [2] (setting [3]).

(Values after US20110190503A1, “Thiazolopyridin-2-yloxy-phenyl and thiazolopyrazin-2-yloxy-phenyl amines as modulators of leukotriene A4 hydrolase” (Janssen Pharmaceutical NV, priority 2008, published 2011).)
